From patent US5733879A, “Peptides and proteins, process for their preparation and their use as cholesterol acceptors” (N.V. Innogenetics, S.A., priority 1992, dated 1998)
Where no end group is shown, it is not given here.

Test: Turbidity decrease at 325 nm on complex formation with DMPC vesicles (lipid binding)
Details: from turbidity decrease with DMPC vesicles, 15-25° C.
Method: FIG. 1 represents the turbidity decrease (on the y-axis, expressed as E/Eo, with E being the turbidity measured at different temperature points and Eo being the turbidity measured at 15° C.) at 325 nm upon the formation of complexes with DMPC vesicles as a function of the temperature (°C.), (x-axis) and on which:
The formation of small discoidal particles between DMPC vesicles and the peptides was monitored by measuring the turbidity decrease at 325 nm as a function of temperature. […] The turbidity decrease initiated by the peptide-lipid association started already at 17° C., below the DMPC transition temperature and stabilized around 23° C. The turbidity decrease enables to determine the binding affinity of lipids to the peptides of the invention. M 1 has a strong lipid binding capacity while 18A and M4 have quite similar lipid binding affinity. The lipid binding of M3 is low compared with the other peptides.

| Sequence | lipid binding capacity / affinity |
| --- | --- |
| EWLKAEYEKVEEKLKELF [M3] | low |
| EWLKAFYKKVLEKLKELF [M1] | strong |
| EWLEAFYKKVLEKLKELF [M4] | quite similar |
